# Experimental data published in PubChem BioAssay AID1963838 (Molecular Pharmacology Branch, DTP, NCI, 2024).
# Tested on: 855422-203-R-J1-PDC complex spheroid viability
# Experiment: Anticancer human tumor 855422-203-R-J1-PDC patient-derived bladder carcinoma cell line growth inhibition [POLQ]
# Settings: for IC50: curve of first compound; for viability, T/C: stronger effect = lower value
# Method in brief: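 Growth inhibition in 3D: complex spheroids (tumor PDC, HUVEC, MSC) treated with POLQ inhibitor combinations; where Cmax unknown, highest tested concentration 10 microM, except SN-38 at 1 microM.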
# [1] = second compound 0.0316 µM, first compound 0.0316 µM
# [2] = second compound 0.0316 µM, first compound 0.1 µM
# [3] = second compound 0.0316 µM, first compound 0.316 µM
# [4] = second compound 0.0316 µM, first compound 1 µM
# [5] = second compound 0.0316 µM, first compound 3.16 µM
# [6] = second compound 0.0316 µM, first compound 10 µM
# [7] = second compound 0.1 µM, first compound 0.0316 µM
# [8] = second compound 0.1 µM, first compound 0.1 µM
# [9] = second compound 0.1 µM, first compound 0.316 µM
# [10] = second compound 0.1 µM, first compound 1 µM
# [11] = second compound 0.1 µM, first compound 3.16 µM
# [12] = second compound 0.1 µM, first compound 10 µM
# [13] = second compound 0.316 µM, first compound 0.0316 µM
# [14] = second compound 0.316 µM, first compound 0.1 µM
# [15] = second compound 0.316 µM, first compound 0.316 µM
# [16] = second compound 0.316 µM, first compound 1 µM
# [17] = second compound 0.316 µM, first compound 3.16 µM
# [18] = second compound 0.316 µM, first compound 10 µM
# [19] = second compound 1 µM, first compound 0.0316 µM
# [20] = second compound 1 µM, first compound 0.1 µM
# [21] = second compound 1 µM, first compound 0.316 µM
# [22] = second compound 1 µM, first compound 1 µM
# [23] = second compound 1 µM, first compound 3.16 µM
# [24] = second compound 1 µM, first compound 10 µM
# [25] = second compound 3.16 µM, first compound 0.0316 µM
# [26] = second compound 3.16 µM, first compound 0.1 µM
# [27] = second compound 3.16 µM, first compound 0.316 µM
# [28] = second compound 3.16 µM, first compound 1 µM
# [29] = second compound 3.16 µM, first compound 3.16 µM
# [30] = second compound 3.16 µM, first compound 10 µM
# [31] = second compound 10 µM, first compound 0.0316 µM
# [32] = second compound 10 µM, first compound 0.1 µM
# [33] = second compound 10 µM, first compound 0.316 µM
# [34] = second compound 10 µM, first compound 1 µM
# [35] = second compound 10 µM, first compound 3.16 µM
# [36] = second compound 10 µM, first compound 10 µM
# 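Also: spheroids exposed to compounds for seven days before readout.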
compound,measurement,setting,value
CCCS(=O)(=O)Nc1ccc(F)c(C(=O)c2c[nH]c3ncc(-c4ccc(Cl)cc4)cc23)c1F + Nc1ccc(C#CCN(C(=O)Cc2ncc(C(F)(F)F)cc2C(F)(F)F)c2ccc(F)cc2)nn1,IC50,second compound 0.0316 µM,5.93 µM
same,IC50,second compound 0.1 µM,5.88 µM
same,IC50,second compound 0.316 µM,6.2 µM
same,IC50,second compound 1 µM,5.98 µM
same,IC50,second compound 3.16 µM,6.02 µM
same,IC50,second compound 10 µM,5.89 µM
same,"viability, T/C",[1],101%
same,"viability, T/C",[2],116%
same,"viability, T/C",[3],92.3%
same,"viability, T/C",[4],103%
same,"viability, T/C",[5],112%
same,"viability, T/C",[6],4.15%
same,"viability, T/C",[7],99%
same,"viability, T/C",[8],117%
same,"viability, T/C",[9],109%
same,"viability, T/C",[10],107%
same,"viability, T/C",[11],103%
same,"viability, T/C",[12],4.49%
same,"viability, T/C",[13],116%
same,"viability, T/C",[14],113%
same,"viability, T/C",[15],93.1%
same,"viability, T/C",[16],106%
same,"viability, T/C",[17],109%
same,"viability, T/C",[18],9.19%
same,"viability, T/C",[19],106%
same,"viability, T/C",[20],106%
same,"viability, T/C",[21],96.2%
same,"viability, T/C",[22],106%
same,"viability, T/C",[23],109%
same,"viability, T/C",[24],5.86%
same,"viability, T/C",[25],93.5%
same,"viability, T/C",[26],108%
same,"viability, T/C",[27],101%
same,"viability, T/C",[28],101%
same,"viability, T/C",[29],103%
same,"viability, T/C",[30],9.79%
same,"viability, T/C",[31],94%
same,"viability, T/C",[32],102%
same,"viability, T/C",[33],101%
same,"viability, T/C",[34],112%
same,"viability, T/C",[35],99.8%
same,"viability, T/C",[36],7.62%
CCc1cc2c(N3CCc4c(cc(Cn5ccnc5)cc4-c4cn(C)nc4C(F)(F)F)C3=O)ccnc2c(OC)n1 + Nc1ccc(C#CCN(C(=O)Cc2ncc(C(F)(F)F)cc2C(F)(F)F)c2ccc(F)cc2)nn1,IC50,second compound 0.0316 µM,9.24 µM
same,IC50,second compound 0.1 µM,9.09 µM
same,IC50,second compound 0.316 µM,6.82 µM
same,IC50,second compound 1 µM,8.55 µM
same,IC50,second compound 3.16 µM,7.63 µM
same,IC50,second compound 10 µM,6.77 µM
same,"viability, T/C",[1],107%
same,"viability, T/C",[2],142%
same,"viability, T/C",[3],133%
same,"viability, T/C",[4],93.7%
same,"viability, T/C",[5],87%
same,"viability, T/C",[6],46.4%
same,"viability, T/C",[7],125%
same,"viability, T/C",[8],142%
same,"viability, T/C",[9],130%
same,"viability, T/C",[10],93.1%
same,"viability, T/C",[11],76.3%
same,"viability, T/C",[12],45.8%
same,"viability, T/C",[13],136%
same,"viability, T/C",[14],147%
same,"viability, T/C",[15],133%
same,"viability, T/C",[16],88.1%
same,"viability, T/C",[17],72.6%
same,"viability, T/C",[18],39.4%
same,"viability, T/C",[19],98.1%
same,"viability, T/C",[20],121%
same,"viability, T/C",[21],109%
same,"viability, T/C",[22],115%
same,"viability, T/C",[23],72.2%
same,"viability, T/C",[24],46.5%
same,"viability, T/C",[25],148%
same,"viability, T/C",[26],131%
same,"viability, T/C",[27],125%
same,"viability, T/C",[28],124%
same,"viability, T/C",[29],72.6%
same,"viability, T/C",[30],43.1%
same,"viability, T/C",[31],98.9%
same,"viability, T/C",[32],122%
same,"viability, T/C",[33],112%
same,"viability, T/C",[34],111%
same,"viability, T/C",[35],72.6%
same,"viability, T/C",[36],38.5%
